Experimental data taken from US9974869B2, “Chelated PSMA inhibitors” (Cancer Targeted Technology LLC, priority 2011, dated 2018).

What was measured:
[1] = Acid and base stability noted in preliminary labeling and deprotection studies; type: physicochemical; conditions: serine-based scaffold; beta-elimination under base, P—N bond labile to acid
Source text: The instability of CTT54 and its protected precursors under basic conditions is due to beta-elimination on serine to yield a dehydroalanine derivative. The acid instability was centered on the P—N bond of CTT54, which precluded the use of acid modifiers in HPLC mobile phases. […] The homoserine analog was known initially as hCTT54 and later, more formally, as CTT1000. The 2(3-hydroxypropyl)glycine is known as TG97 and CTT2000. The base stability was expected as the beta-elimination problem associated with phosphorylated serine residue would be blocked. However, the acid stability was unexpected.

tumor = test: Uptake over time in the fraction associated with the tumor; conditions: in vivo
Source text: Following administration of the chelated PSMA inhibitors herein, the imaging time may be altered to alter and/or optimize imaging characteristics.

PSMA = PSMA (Homo sapiens, UniProt Q04609); test: PSMA inhibition (IC50, mode of inhibition); type: biochemical
Chain of PSMA (Q04609 whole entry): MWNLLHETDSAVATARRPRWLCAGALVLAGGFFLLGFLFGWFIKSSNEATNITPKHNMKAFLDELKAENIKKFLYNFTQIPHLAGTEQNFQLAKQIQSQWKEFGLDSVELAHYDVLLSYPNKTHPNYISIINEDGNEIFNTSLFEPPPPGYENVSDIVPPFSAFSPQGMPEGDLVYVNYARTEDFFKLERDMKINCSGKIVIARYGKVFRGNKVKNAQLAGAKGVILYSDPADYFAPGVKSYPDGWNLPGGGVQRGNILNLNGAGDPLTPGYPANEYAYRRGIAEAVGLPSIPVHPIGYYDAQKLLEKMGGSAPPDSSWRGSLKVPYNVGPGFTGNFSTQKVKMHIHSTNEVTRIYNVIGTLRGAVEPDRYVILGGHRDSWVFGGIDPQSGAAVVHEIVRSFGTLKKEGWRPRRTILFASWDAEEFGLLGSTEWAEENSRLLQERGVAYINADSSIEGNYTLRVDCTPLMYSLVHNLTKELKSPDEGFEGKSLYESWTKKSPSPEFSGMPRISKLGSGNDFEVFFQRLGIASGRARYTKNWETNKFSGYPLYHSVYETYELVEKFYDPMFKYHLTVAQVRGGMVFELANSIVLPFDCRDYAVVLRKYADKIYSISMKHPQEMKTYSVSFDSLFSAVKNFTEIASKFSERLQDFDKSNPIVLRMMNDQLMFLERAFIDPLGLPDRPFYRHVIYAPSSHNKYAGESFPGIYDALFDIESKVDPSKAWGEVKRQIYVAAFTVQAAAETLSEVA

Structure (SMILES)	acid and base stability [1]	uptake in the fraction associated with the tumor over time (tumor)	IC50 (PSMA) [µM]
N[C@@H](CCC(=O)N[C@@H](COP(=O)(O)N[C@@H](CCC(=O)O)C(=O)O)C(=O)O)C(=O)O [CTT-54, L-[…]- glutamyl-O-[{[(1S)-1,3-dicarboxy-propyl]amino} (hydroxy)phosphoryl]-L-serine]	acid and base stability issues were noted	continues to increase over time	–
N[C@@H](CCC(=O)N[C@@H](CCOP(=O)(O)N[C@@H](CCC(=O)O)C(=O)O)C(=O)O)C(=O)O [CTT1000]	–	–	0.015
